The values below come from article PMC8066331, “Anticancer Activity of Triazolo-Thiadiazole Derivatives and Inhibition of AKT1 and AKT2 Activation” (Pharmaceutics, 2021).

The test system of one assay is DLD-1. Put plainly: MTT in vitro antiproliferative assay, DLD-1. It counts as cell-based, human. To be noted: DLD-1, MTT; for TGI / GI50: 48 h drug exposure; for IC50 / GI50: Homo sapiens; for IC50: 48 h, 50% cell death. From the text: (§1) The in vitro antiproliferative activities of the novel triazolo[3,4-b]thiadiazole derivatives were estimated in ten well-established human cancer cell lines including three ovarian (SKOV-3, UWB 1.289, and UWB 1.289+BRCA1), five colorectal adenocarcinoma (DLD-1, HT-29, LS174T, LoVo, and SW403), and two prostate cancer cell lines (PC-3 and DU-145). All cancer cell lines were obtained from the American Type Culture Collection (ATCC) and cultivated in different culture media according to the instructions. The required growth mediums were supplemented with 10% fetal bovine serum and 1% streptomycin/penicillin. All cancer cell lines were cultured as monolayers and maintained at 37 °C, 5% CO2 in humidified air.
(§2) Stock solutions of all tested compounds were prepared by dissolving the required amount of substances in the DMSO solvent to reach the desired concentration of 15 mM.
(§3) To evaluate the in vitro antiproliferative activity of the triazolo[3,4-b]thiadiazole derivatives, 3-(4,5-dimethylthiazol-2-yl)-2,5-diphenyltetrazolium bromide (MTT) assay was assessed. According to the protocol, cells were firstly seeded into a 96-well plate at a density of 8 × 10^3 cells and grown for 24 h at 37 °C, 5% CO2 in humidified air. Subsequently, cells were treated with the tested compounds in a specific range of drug concentrations (1–100 μΜ). Following 48 h of drug exposure, the culture media were discarded and replaced with 100 μL of fresh medium. Afterwards, 50 μL of dissolved MTT in phosphate-buffered saline (PBS) solution (5 mg/mL) were added in each well and cells were incubated for 3 h at 37 °C, 5% CO2 in humidified air. Incubation time was followed by MTT discard and the addition of 100 μL of DMSO solvent so that the formazan crystals could be dissolved. The absorbance of the converted dye was immediately measured at a wavelength of 540 nm on an ELISA reader (VersaMax Microplate Reader, Orleans, CA, USA).
(§4) The in vitro anticancer effect of a tested compound on cell viability was determined by three dose–response parameters termed GI50, TGI, and IC50. More specifically, the GI50 value indicates the required concentration of the compound that impels 50% cell growth inhibition, the TGI value corresponds to the concentration that induces 100% cell growth inhibition, and the IC50 value is the concentration that causes 50% cell death. The two parameters GI50 and TGI represent the cytostatic activity, whereas IC50 reflects the cytotoxic effect of a drug. To estimate the three parameters, nine absorbance measurements were required including control 24 h (Ct24), control 72 h (Ct72), and the mean of cell survival in all seven drug concentrations (Tt72). The percentage growth inhibition was calculated according to National Cancer Institute’s (NCI) protocol: [(Tt72x) − (Ct24)/(Ct72) − (Ct24)] × 100 for concentrations for which Tt72x > Ct24 and [(Tt72x) − (Ct24)/Ct24] × 100 for concentrations for which Tt72x < Ct24. GI50 was calculated from [(Tt72x) − (Ct24)/(Ct72) − (Ct24)] × 100 = 50, TGI was calculated from [(Tt72x) − (Ct24)/(Ct72) − (Ct24)] × 100 = 0, and IC50 was calculated from [(Tt72x) − (Ct24)/Ct24] × 100 = 50. All the experiments were carried out in triplicate.

A further assay deals with SKOV-3. Put plainly: MTT in vitro antiproliferative assay, SKOV-3. To be noted: Homo sapiens; for IC (TGI): read-out: TGI. It counts as cell-based.
Description: as §1, §2, §3, §4

The next assay has as its system HT-29. Put plainly: MTT in vitro antiproliferative assay, HT-29. The assay is classed as cell-based, human. To be noted: for TGI: HT-29, MTT, 48 h drug exposure; for GI50 / IC50: Homo sapiens, HT-29, 48 h.
Description: as §1, §2, §3, §4

In another assay the test system is DU-145. As to the kind of experiment: MTT in vitro antiproliferative assay, DU-145. It counts as cell-based, human. The following applies: for TGI: DU-145, MTT, 48 h drug exposure; for GI50 / IC50: Homo sapiens, DU-145, 48 h.
Description: as §1, §2, §3, §4

In another assay the test system is PC-3. Put plainly: MTT in vitro antiproliferative assay, PC-3. It counts as cell-based. To be noted: Homo sapiens; for IC (TGI): read-out: TGI.
Description: as §1, §2, §3, §4

The mark [1] stands for this setting: SK-OV-3, SKOV-3, MTT, 48 h, concentration causing 50% cell death, read-out: IC50.
[2] abbreviates: SK-OV-3, SKOV-3, MTT, 48 h drug exposure, read-out: GI50.
[3] abbreviates: SK-OV-3, SKOV-3, MTT, 48 h drug exposure.
[4] abbreviates: PC-3, MTT, 48 h, 50% cell death, read-out: IC50.
[5] abbreviates: PC-3, MTT, 48 h drug exposure, read-out: GI50.

Like-named read-outs stand apart in the source and are kept apart here.

In the case of `CCN(CC)S(=O)(=O)c1cc(OC)c(OC)cc1Cc1nnc2sc(-c3cc([N+](=O)[O-])ccc3[N+](=O)[O-])nn12` [Compound 6e, 2-((6-(2,5-dinitrophenyl)-[1,2,4]triazolo[3,4-b][1,3,4]thiadiazol-3-yl)methyl)-N,N-diethyl-4,5-dimethoxybenzenesulfonamide], the TGI in the assay with DLD-1 is on record as 37 ± 2.0 μΜ; with HT-29 it was 29 ± 0.5 μΜ; in the assay with DU-145 it was 18.3 ± 0.2 μΜ. The IC50 in the assay on DLD-1 is 53.6 ± 1.05 µM; with SKOV-3 (SK-OV-3, 48 h), 38 ± 1.8 µM; with HT-29, 44 ± 1 µM; in the assay on DU-145, 28 ± 0.2 µM; with PC-3 (PC-3, 48 h), 26.5 ± 0.9 µM. Also, the GI50 in the assay with DLD-1 is 25 ± 2 µM; in the assay with SKOV-3 (SK-OV-3, 48 h), 18 ± 0.7 µM; with HT-29, 18 ± 1 µM; in the assay with DU-145, 13 ± 0.5 µM; in the assay on PC-3 (PC-3, 48 h), 11 ± 1 µM. The IC (TGI) in the assay with SKOV-3 (SK-OV-3, 48 h) came out at 24 ± 1.2 µM; in the assay with PC-3 (PC-3, 48 h) it was 17 ± 1 µM.
On to `COc1cc(Cc2nnc3sc(/C=C/c4ccc(Cl)cc4)nn23)c(S(=O)(=O)N(C(C)C)C(C)C)cc1OC` [Compound 10a, (E)-2-((6-(4-chlorostyryl)-[1,2,4]triazolo[3,4-b][1,3,4]thiadiazol-3-yl)methyl)-N,N-diisopro-pyl-4,5-dimethoxybenzenesulfonamide], for which the IC50 with SKOV-3 (setting [1]) and in the assay on PC-3 (setting [4]) was above 100 µM throughout. The GI50 in the assay with SKOV-3 (setting [2]) was found to be 76 ± 6 µM; in the assay with PC-3 (setting [5]), 2 ± 0.5 µM. The IC (TGI) in the assay with SKOV-3 (setting [3]) was above 100 µM; with PC-3 (PC-3, MTT, 48 h drug exposure), 84 ± 2 µM.
For `COc1cc(Cc2nnc3sc(-c4ccc([N+](=O)[O-])cc4)nn23)c(S(=O)(=O)N(C(C)C)C(C)C)cc1OC` [Compound 7c, N,N-diisopropyl-4,5-dimethoxy-2-((6-(4-nitrophenyl)-[1,2,4]triazolo[3,4-b][1,3,4]thiadiazol-3-yl)methyl)benzenesulfonamide], the IC50 with SKOV-3 (setting [1]) is 66 ± 2.5 µM; in the assay with PC-3 (setting [4]) it was above 100 µM. The GI50 in the assay with SKOV-3 (setting [2]) came out at 15 ± 1.4 µM; in the assay with PC-3 (setting [5]) it was 23 ± 0.8 µM. Besides, the IC (TGI) in the assay with SKOV-3 (setting [3]) was determined as 28 ± 2.2 µM; with PC-3 (PC-3, MTT, 48 h drug exposure) it was 102 ± 1.2 µM.
Turning to `CCN(CC)S(=O)(=O)c1cc(OC)c(OC)cc1Cc1nnc2sc(/C=C/c3ccc([N+](=O)[O-])cc3)nn12` [Compound 9d, (E)-N,N-diethyl-4,5-dimethoxy-2-((6-(4-nitrostyryl)-[1,2,4]triazolo[3,4-b][1,3,4]thiadiazol-3-yl)methyl)benzenesulfonamide], the IC50 in the assay with SKOV-3 (setting [1]) and with PC-3 (setting [4]) was above 100 µM each time. The GI50 is above 100 µM with SKOV-3 (setting [2]) and 30 ± 0.5 µM in the assay on PC-3 (setting [5]). Further, the IC (TGI) is above 100 µM with SKOV-3 (setting [3]) and above 100 µM with PC-3 (PC-3, MTT, 48 h drug exposure).
As to `CCN(CC)S(=O)(=O)c1cc(OC)c(OC)cc1Cc1nnc2sc(-c3ccc(Cl)cc3)nn12` [Compound 6b, 2-((6-(4-chlorophenyl)-[1,2,4]triazolo[3,4-b][1,3,4]thiadiazol-3-yl)methyl)-N,N-diethyl-4,5-dimethoxybenzenesulfonamide], the IC50 is above 100 µM in the assay with SKOV-3 (setting [1]) and 104 ± 0.8 µM in the assay on PC-3 (setting [4]). The GI50 was found to be 36 ± 0.1 µM with SKOV-3 (setting [2]) and 32 ± 0.4 µM in the assay on PC-3 (setting [5]). The IC (TGI) with SKOV-3 (setting [3]) came out at 60 ± 0.8 µM; in the assay on PC-3 (PC-3, MTT, 48 h drug exposure), 56 ± 0.6 µM.
On to `CCN(CC)S(=O)(=O)c1cc(OC)c(OC)cc1Cc1nnc2sc(/C=C/c3cccc([N+](=O)[O-])c3)nn12` [Compound 9c, (E)-N,N-diethyl-4,5-dimethoxy-2-((6-(3-nitrostyryl)-[1,2,4]triazolo[3,4-b][1,3,4]thiadiazol-3-yl)methyl)benzenesulfonamide], for which the IC50 in the assay on SKOV-3 (setting [1]) and with PC-3 (setting [4]) was above 100 µM throughout. Moreover, the GI50 is above 100 µM in the assay on SKOV-3 (setting [2]) and 38 ± 2 µM with PC-3 (setting [5]). Moreover, the IC (TGI) in the assay on SKOV-3 (setting [3]) is above 100 µM; with PC-3 (PC-3, MTT, 48 h drug exposure), above 100 µM.
As to `COc1cc(Cc2nnc3sc(-c4cc([N+](=O)[O-])ccc4[N+](=O)[O-])nn23)c(S(=O)(=O)N(C(C)C)C(C)C)cc1OC` [Compound 7d, 2-((6-(2,5-dinitrophenyl)-[1,2,4]triazolo[3,4-b][1,3,4]thiadiazol-3-yl)methyl)-N,N-diisopropyl-4,5-dimethoxybenzenesulfonamide], the TGI in the assay on DLD-1 is on record as 12 ± 0.5 μΜ; in the assay on HT-29, 26 ± 1.52 μΜ; in the assay with DU-145, 14 ± 0.5 μΜ. The IC50 in the assay with DLD-1 worked out at 22 ± 1 µM; in the assay on SKOV-3 (SK-OV-3, 48 h) it was 23 ± 1.4 µM; with HT-29, 40 ± 1 µM; in the assay with DU-145 it was 21.3 ± 0.9 µM; with PC-3 (PC-3, 48 h) it was 22 ± 0.3 µM. The GI50 in the assay with DLD-1 was 7.3 ± 0.75 µM; in the assay on SKOV-3 (SK-OV-3, 48 h), 13 ± 0.5 µM; with HT-29, 17.9 ± 2.51 µM; in the assay on DU-145, 6.8 ± 0.8 µM; with PC-3 (PC-3, 48 h), 8 ± 1 µM. Also, the IC (TGI) in the assay with SKOV-3 (SK-OV-3, 48 h) was found to be 17 ± 1 µM; with PC-3 (PC-3, 48 h), 11 ± 1.04 µM.
Take `COc1cc(Cc2nnc3sc(/C=C/c4ccc(F)cc4)nn23)c(S(=O)(=O)N(C(C)C)C(C)C)cc1OC` [Compound 10b, (E)-2-((6-(4-fluorostyryl)-[1,2,4]triazolo[3,4-b][1,3,4]thiadiazol-3-yl)methyl)-N,N-diisopro-pyl-4,5-dimethoxybenzenesulfonamide]: the IC50 with SKOV-3 (setting [1]) and with PC-3 (setting [4]) was above 100 µM throughout. Also, the GI50 in the assay on SKOV-3 (setting [2]) was 50 ± 2 µM; in the assay on PC-3 (setting [5]) it was 31 ± 1.1 µM. Moreover, the IC (TGI) was above 100 µM with SKOV-3 (setting [3]) and above 100 µM in the assay with PC-3 (PC-3, MTT, 48 h drug exposure).
